Assay: gradient 5% acetonitrile 3 min, to 50% in 2 min, to 85% in 15 min, held 3 min, 100 µL/min
Settings: column: Zorbax Extend-C18 2.1 x 50 mm; eluents: water / acetonitrile, 0.1% formic acid
Outline: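 Over 3 months, pure standards in mixtures of ~100 molecules were run by HPLC coupled to a quadrupole time-of-flight mass spectrometer in positive and negative ionization mode. The column was a Zorbax Extend-C18 (2.1 × 50 mm, 1.8 μm) at 100 μL/min, eluted with water and acetonitrile each holding 0.1% formic acid, with 40 μL dead and 900 μL dwell volumes. Retention time was determined from adduct peaks chosen by software and checked manually.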

| Structure (SMILES) | RP-LC retention time [s] |
| --- | --- |
| CCOC(=O)CC(NC(=O)CCc1c(C)nc2ncnn2c1C)c1ccc(C)cc1 (stereo unspecified) | 695 |
| O=C(CN1C(=O)c2ccccc2Sc2ncccc21)N1CCC(N2CCCCC2)CC1 | 583 |
| CCc1ccc(NC(=O)Cn2c(N)nc(CC)cc2=O)cc1 | 596 |
| CCCS(=O)(=O)N1CCCN(C2=NS(=O)(=O)C(c3ccc(C)cc3)=C2C)CC1 | 874 |
| Cc1ccc(C)c(Cn2ccn3nc(-c4ccccc4)c(CO)c3c2=O)c1 | 1030 |
| CCOc1ccccc1-c1noc(-c2cc(-c3ccccc3)n[nH]2)n1 | 952 |
| CC(C)N1C(=O)c2cccnc2Sc2cc(NC(=O)c3ccc(F)c(F)c3)ccc21 | 925 |
| CC(C)n1cc(S(=O)(=O)N2CCN(c3ccccc3Cl)CC2)c2cccnc21 | 761 |
| O=C(NCCCN1CCCC1=O)c1cccc2c1CCN2C(=O)Nc1ccc(F)cc1 | 680 |
| Cc1cc(NC(=O)C2CCN(c3cc(N4CCCC4)ncn3)CC2)ccc1F | 693 |
| CCn1cc(-c2nc(CC(=O)Nc3ccc(OC)c(Cl)c3)cs2)c2cccnc21 | 918 |
| Cc1nn(-c2ccc(SCC(=O)NC(C)C)nn2)c(C)c1C | 776 |
| COCc1cn(C2CN(C(=O)c3sc(C)nc3C)C2)nn1 | 589 |
| O=C(Cc1ccccc1F)NC1CCN(c2cc(-c3cccs3)[nH]n2)C1 (stereo unspecified) | 705 |
| Cc1cc(NC(=O)Cn2cc3c(n2)CCCCC3)ccc1Br | 1030 |
| CC(C)N1CCC2(CC1)N=C(c1ccc3c(c1)OCO3)CC(c1ccccc1O)N2 (stereo unspecified) | 593 |
| COc1ccccc1-c1nnc(C2CCN(S(C)(=O)=O)CC2)s1 | 734 |
| Cc1ccc(-n2c(N3CCC(C(=O)NC4CC4)CC3)nc3ccsc3c2=O)cc1 | 719 |
| CC(=O)Nc1ccc2c(c1)CN(C(=O)c1ccc(C#N)cc1)C(C(=O)N(C)C)C2 (stereo unspecified) | 619 |
| Fc1ccccc1-c1nc(-c2ccnc(N3CCCC3)c2)no1 | 702 |
| Cc1nnc(-c2cc3ccccc3n2Cc2ccccc2Cl)o1 | 1100 |
| O=C(CN1CCN(Cc2ccc(F)cc2)C1=O)N1CCN(C2CCCCC2)CC1 | 613 |
| COc1ccc2c(c1)-c1nc(NC(=O)c3ccccc3C)sc1CC2 | 1130 |

| Structure (SMILES) | RP-LC retention time [s] |
| --- | --- |
| COc1ccc(-c2[nH]c3ccccc3c2C(C[N+](=O)[O-])c2cccs2)cc1OC (stereo unspecified) | 960 |
| O=C(NC1CCCC1)N1CCC(Oc2ccc(-c3noc(C4CC4)n3)cc2)C1 (stereo unspecified) | 904 |
| Cc1cc2c(cc1C(=O)NCCc1c[nH]c3ccccc13)OCCCO2 | 824 |
| Cc1ccn2c(NC(=O)C3CCCCC3)c(-c3ccc(F)cc3)nc2c1 | 657 |
| CC(C)C(=O)N1CCN(c2nc(CN3CCCCC3)cs2)CC1 | 603 |
| CCOc1ccc(NC(=O)Cn2cccc2-c2nnc(-c3ccccc3)o2)cc1 | 990 |
| Cc1ccccc1S(=O)(=O)N1CCC(c2noc(-c3ccccn3)n2)C1 (stereo unspecified) | 900 |
| Cc1c(-c2noc(-c3ccc(F)cc3)n2)nnn1Cc1ccc(F)cc1 | 1060 |
| COC1CCC12CCN(S(=O)(=O)c1ccc(F)c(C)c1)CC2 (stereo unspecified) | 1030 |
| CCCNC(=O)C1CCN(c2ccc(SCC(=O)Nc3cc(F)ccc3F)nn2)CC1 | 670 |
| COc1ccccc1Nc1nc(-c2ccccc2)cs1 | 1150 |
| O=C(NCCC1=CCCCC1)C1CCN(c2cnc(N3CCOCC3)nc2)CC1 | 772 |
| O=C(Nc1nnc(-c2ccsc2)o1)c1ccno1 | 617 |
| Cc1ccc2oc(N3CCN(C(=O)Cc4ccccc4)CC3)nc2n1 | 620 |
| Cc1ccc(NC(=O)CN2C(=O)NC3(CCCCC3)C2=O)c(C)c1 | 774 |
| CCCCN1CCN(C(=O)c2ccc3c(c2)nc2n3CCN(C3CCCCC3)C2=O)CC1 | 618 |
| O=C(Nc1cccc(-c2nnc3n2CCCC3)c1)c1ccsc1 | 659 |
| Cc1ccc(NC(=O)CSc2nccc(N3CCN(c4cc(C)ccc4C)CC3)n2)c(F)c1 | 1110 |
| CCCc1noc(-c2ccnc(-n3ncc(C(=O)N4CCSCC4)c3C)c2)n1 | 974 |
| COc1ccc(C(=O)NCc2c(-c3ccccc3)nc3sc(C)nn23)cn1 | 774 |
| O=C1NC2(CCN(C(=O)NCCc3ccccc3)CC2)Nc2c(Cl)cccc21 | 773 |
| CC(=O)N1CCc2cc(N3CC(C(=O)Nc4cc(C)ccc4F)CC3=O)ccc21 (stereo unspecified) | 743 |
| Cc1ccc(N2CCC(NC(=O)Nc3cc(F)cc(F)c3)C2=O)cc1C (stereo unspecified) | 903 |

| Structure (SMILES) | RP-LC retention time [s] |
| --- | --- |
| COc1cc(NC(=O)Cc2csc3nc(-c4ccccc4)cn23)cc(OC)c1 | 795 |
| Cc1ccc(CCNC(=O)c2cc3sccc3n2Cc2ccc(Cl)cc2)cc1 | 1270 |
| Cn1cc(CCN2CCC(C(=O)N3CCCCCC3)CC2)c2cccnc21 | 595 |
| Cc1ccsc1CCNC(=O)C1CCN(S(=O)(=O)c2ccc3c(c2)sc(=O)n3C)CC1 | 872 |
| Cc1noc(/C=C\c2ccc(S(=O)(=O)N3CCCCC3C)cc2)c1NC(=O)C1CC1 (stereo unspecified) | 938 |
| CN(C)c1ccc(C(=O)NCCCCCCC(=O)NO)cc1 | 631 |
| CCOCc1nc(C2CCCN(C(=O)C3(c4ccccc4)CC3)C2)no1 (stereo unspecified) | 873 |
| Cc1ccnc(N2CCCC(C(=O)N3CCN(C)CC3)C2)n1 (stereo unspecified) | 538 |
| Cc1ccc(CNC(=O)CCCn2c3ccccc3c3cnn(C)c(=O)c32)o1 | 814 |
| CCOc1ccc(-c2cc3c(=O)n(Cc4nc(-c5cccc(C)c5)no4)ncn3n2)cc1 | 1210 |
| Cc1oc(-c2[nH]ncc2C(=O)N2CCCCC2)cc1S(=O)(=O)Nc1cccc(Cl)c1 | 796 |
| Cc1sc(-c2cc(C(F)(F)F)on2)cc1S(=O)(=O)N1CCCCCC1 | 1270 |
| CCS(=O)(=O)N1CCCc2cc(C(=O)NCCC3=CCCCC3)ccc21 | 987 |
| O=S(=O)(c1ccc2c(c1)OCCO2)N1CCCn2nc(-c3cccnc3)cc2C1 | 621 |
| Cc1noc(-c2cccc(OC3CN(S(=O)(=O)c4c(C)noc4C)C3)c2)n1 | 964 |
| Cc1ccc(C)c2sc(N(C)CC(=O)Nc3ccc(S(C)(=O)=O)cc3)nc12 | 892 |
| COc1ccccc1-c1cc(C(N)=O)c2cccc(C)c2n1 | 828 |
| Cc1nc(-c2ccc3c(c2)n(CC(=O)N2c4ccccc4CC2C)c(=O)n3C(C)C)no1 (stereo unspecified) | 989 |
| CCNC(=O)N1CCC(OC(C)=O)CC1 | 586 |
| CC(=O)Nc1ccc(Cc2nc(-c3cccc(-c4ccn[nH]4)c3)no2)cc1 | 798 |
| CCc1cc(C(=O)N2CCCC2)nc2cc(-c3ccsc3)nn12 | 950 |
| CCn1cc(C(=O)Nc2ccc(Br)cc2F)c(=O)c2ccc(C)nc21 | 1290 |
| CC(C)C(=O)N1CCC2(CC1)CCC(O)(CN(C)C)CC2 | 559 |

| Structure (SMILES) | RP-LC retention time [s] |
| --- | --- |
| COc1cn(CC(=O)Nc2ccc(F)cc2F)c(CO)cc1=O | 565 |
| Cn1cc(-c2cc3n(n2)CCC(=O)N3CCCC(=O)NC2CCCCC2)c2ccccc21 | 847 |
| Cc1ccccc1-c1ccc(N2CCC(C(=O)Nc3ccc4c(c3)OCCO4)CC2)nn1 | 634 |
| Cc1ccc(NC(=O)N2CCN(c3nc4cccnc4n(C)c3=O)CC2)cc1Cl | 951 |
| COc1ccc(OC(=O)c2cn(CC(C)C)c(=O)c3ccccc23)cc1 | 1180 |
| Cc1ccccc1OCC(=O)N1C[C@@H]2C[C@H](NC(=O)c3ccccc3)[C@H]1C2 | 813 |
| CCn1cc(C(=O)NCc2ccccc2)c2cccnc21 | 782 |
| CCOC(=O)c1ccc(NC(=O)N2CCCC2c2cc(C(C)C)no2)cc1 (stereo unspecified) | 942 |
| CCOC(=O)c1cccc(NC(=O)c2cnc(-c3ccccc3)nc2-c2ccncc2)c1 | 924 |
| CCCC(C)NC(=O)c1cc2c(s1)N(C)CCCC2 (stereo unspecified) | 974 |
| O=C(NCCn1c(=O)n(Cc2ccccc2)c2cccnc21)c1cccs1 | 744 |
| Cc1noc(C)c1S(=O)(=O)N1CCC(c2noc(-c3ccccn3)n2)C1 (stereo unspecified) | 794 |
| Cc1ccc(Nc2nc3ccncc3n(C(C)C)c2=O)cc1Cl | 771 |
| CO[C@H]1CN(C(C)C)[C@H]1C1CCN(C(=O)C2CC=CC2)CC1 | 593 |
| COCCCN1C(=O)c2ccc(-c3ccco3)n2CC1(C)C(=O)NCc1ccccc1 (stereo unspecified) | 817 |
| COc1cccc(CNC(=O)NCCC2CCN(S(=O)(=O)c3ccccc3)CC2)c1 | 821 |
| O=C(Cn1cccn1)N1CC(F)(F)C[C@H]1c1nc(C2CC2)no1 | 723 |
| CC(C)n1cnc(S(=O)(=O)N2CCCC(C(=O)Nc3ccccc3)C2)c1 (stereo unspecified) | 768 |
| COc1ccccc1CC(=O)N1CCCC1c1c(C)noc1C (stereo unspecified) | 753 |
| COc1ccc(OC)c(S(=O)(=O)N2CCCC(C(=O)NCC(C)C)C2)c1 (stereo unspecified) | 796 |
| CCN1CCC2(CC1)OC(=O)C(C)=C2C(=O)NCc1ccc(Cl)cc1 | 643 |
| COc1ccc(OC)c(NS(=O)(=O)c2c(C)nn(-c3ccc(-c4ccc(C)cc4)nn3)c2C)c1 | 1110 |

Source: the METLIN SMRT retention time set (Domingo-Almenara et al. 2019)
